Patent US10463649B2, “Inhibitors of Mc1-1 as drugs to overcome resistance to BRAF inhibitors and MEK inhibitors” (Texas Tech University System, priority 2015, dated 2019)

Assays:
Format in all cases: cell-based
A375 cells = assay: Development of resistance to vemurafenib in A375 cells, cytotoxicity evaluated intermittently by SRB assay; settings: for Fold Resistance: A375; for IC50: Homo sapiens
Experimental: (§1) Generation of BRAF-inhibitor resistant cell lines. Vemurafenib resistant clones of A375 and SK-MEL-28 were generated by continuous exposure of cells to escalating concentrations of vemurafenib over a period of one year. The cells were treated with vemurafenib for 72 hours after which fresh media was added to the cells. In all, cells were exposed weekly to two treatments of vemurafenib for 72 hours each with a 24 hour recovery period between the treatments. […] Similarly, dabrafenib resistant cells were cultured by incubating the cells with increasing concentrations of the drug for a period of 3 months as described above. The fold resistant was intermittently evaluated by cytotoxicity analysis. Vemurafenib resistant cell lines were referred to as SK-MEL-28-R or A375-R and dabrafenib resistant cell lines were referred to as A375-DR, SK-MEL-28-DR or WM-239-DR. […] Here, A375 cells were injected subcutaneously in nude mice. When palpable tumors were formed, the mice were orally treated with 30 mg/kg vemurafenib twice a day. After a month, the tumors the resisted vemurafenib treatments were extracted and cultured in vitro.
(§2) Cells were exposed to two treatments of vemurafenib in a week for 72 hours each. Cytotoxicity of these cells was evaluated intermittently by sulforhodamine B assay. […] Cells were exposed to two treatments of vemurafenib in a week for 72 hours each. Cytotoxicity of these cells was evaluated intermittently by sulforhodamine B assay.

SK-MEL-28-R cells = assay: SRB cell survival in vemurafenib resistant SK-MEL-28-R cells
Experimental: (§3) Each study was performed three times independently. Mcl-1 inhibitor overcomes vemurafenib resistance in melanoma cells. […] The cell survival was evaluated by sulforhodamine B assay.
(§4) FIGS. 4A to 4D show the silencing Mcl-1 reverses vemurafenib resistance. […] The cell survival was evaluated by sulforhodamine B assay.
as §1
(§5) Mcl-1 silencing. Silencing of Mcl-1 was achieved according to the protocol described by the inventors (27). Briefly, 0.3×10^6 cells were plated in OPTI-MEM without antibiotics and transfected with either Mcl-1 siRNA or scrambled siRNA. Complexes were prepared by incubating […] siRNA with 8 μl siPORT transfection reagent in 200 μl OPTI-MEM media without serum or antibiotic for 20 minutes. These complexes were then added to the cells. Six hours after transfection, complexes were replaced with fresh medium.

SK-MEL-28 cells = assay: Development of resistance to vemurafenib in SK-MEL-28 cells, cytotoxicity evaluated intermittently by SRB assay; settings: for IC50: Homo sapiens; for Fold Resistance: SK-MEL-28
Experimental: as §1, §2

[1] = test system: A375 cells transfected with Mcl-1 plasmid; assay: SRB cell survival in A375 cells transfected with Mcl-1 plasmid; settings: Mcl-1 overexpressing A375 (transient), 72 hours
Experimental: FIG. 3A (A375 cells) and FIG. 3B SK-MEL-28 cells untransfected or transfected with Mcl-1 plasmid were treated with 0.2 μM and 0.4 μM vemurafenib for 72 hours. The cell survival was evaluated by sulforhodamine B assay. […] FIG. 3E A375 and A375-Mcl-1+/+ or FIG. 3F, SK-MEL-28 and SK-MEL-28-Mcl-1+/+ were treated with 0.2 μM and 0.4 μM vemurafenib for 72 hours. The cell survival was evaluated by sulforhodamine B assay.
FIG. 8A (A375) and FIG. 8B (SK-MEL-28) untransfected or transfected with Mcl-1 plasmid were treated with 10 nM dabrafenib or 2 nM trametinib for 72 hours. FIG. 8C A375 and FIG. 8D SK-MEL 28 cells untransfected or transfected with Mcl-1 plasmid were treated with 400 nM vemurafenib or 2 nM trametinib for 72 hours. The cell survival was evaluated by sulforhodamine B assay.
Mcl-1 overexpression. A375 or SK-MEL-28 cells were transiently or stably transfected with plasmid overexpressing Mcl-1 by nucleofection kit (Lonza, Basel, Switzerland) according to manufacturer's protocol and previously described by the inventors (26). Briefly, 2×10^6 cells were suspended in a reaction mixture from the kit specific to the cell line (Kit V for A375 and Kit R for SK-MEL-28 cells). The cells were transferred to the cuvettes and nucleofected using the nucleofector instrument (Amaxa, Cologne, Germany). […]

A375-R cells = assay: SRB cell survival in vemurafenib resistant A375-R cells
Experimental: as §3, §4, §1, §5

CCCS(=O)(=O)Nc1ccc(F)c(C(=O)c2c[nH]c3ncc(-c4ccc(Cl)cc4)cc23)c1F [vemurafenib]
Fold Resistance (A375 cells; Month 0, vemurafenib 0 μM): 1 | Fold Resistance (A375 cells; Month 1, vemurafenib 0.2 μM): 2.15 | Fold Resistance (A375 cells; Month 2, vemurafenib 0.2 μM): 2.85 | Fold Resistance (A375 cells; Month 3, vemurafenib 0.4 μM): 4.1 | Fold Resistance (A375 cells; Month 4, vemurafenib 0.4 μM): 4.5 | Fold Resistance (A375 cells; Month 5, vemurafenib 0.8 μM): 4.85 | Fold Resistance (A375 cells; Month 6, vemurafenib 0.8 μM): 5.6 | Fold Resistance (A375 cells; Month 7, vemurafenib 1 μM): 8.5 | Fold Resistance (A375 cells; Month 8, vemurafenib 1 μM): 9.7 | Fold Resistance (A375 cells; Month 9, vemurafenib 4 μM): 12.5 | Fold Resistance (A375 cells; Month 10, vemurafenib 8 μM): 18.4 | Fold Resistance (A375 cells; Month 11, vemurafenib 8 μM): 26 | Fold Resistance (A375 cells; Month 12, vemurafenib 10 μM): 30 | IC50 (A375 cells; A-375, Month 0, vemurafenib 0 μM): 0.1 µM | IC50 (A375 cells; A-375, Month 1, vemurafenib 0.2 μM): 0.215 µM | IC50 (A375 cells; A-375, Month 2, vemurafenib 0.2 μM): 0.285 µM | IC50 (A375 cells; A-375, Month 3, vemurafenib 0.4 μM): 0.41 µM | IC50 (A375 cells; A-375, Month 4, vemurafenib 0.4 μM): 0.45 µM | IC50 (A375 cells; A-375, Month 5, vemurafenib 0.8 μM): 0.485 µM | IC50 (A375 cells; A-375, Month 6, vemurafenib 0.8 μM): 0.56 µM | IC50 (A375 cells; A-375, Month 7, vemurafenib 1 μM): 0.85 µM | IC50 (A375 cells; A-375, Month 8, vemurafenib 1 μM): 0.97 µM | IC50 (A375 cells; A-375, Month 9, vemurafenib 4 μM): 1.25 µM | IC50 (A375 cells; A-375, Month 10, vemurafenib 8 μM): 1.84 µM | IC50 (A375 cells; A-375, Month 11, vemurafenib 8 μM): 2.6 µM | IC50 (A375 cells; A-375, Month 12, vemurafenib 10 μM): 3 µM | Decrease of cell survival (SK-MEL-28-R cells; SK-MEL-28-R cells, Mcl-1 silenced by siRNA, then 0.4 μM vemurafenib 72 hours): 55% | IC50 (SK-MEL-28-R cells; SK-MEL-28R cells, 72 hours): 3300 nM | IC50 (SK-MEL-28 cells; SK-MEL-28, Month 0, vemurafenib 0 μM): 0.075 µM | IC50 (SK-MEL-28 cells; SK-MEL-28, Month 1, vemurafenib 0.2 μM): 0.158 µM | IC50 (SK-MEL-28 cells; SK-MEL-28, Month 2, vemurafenib 0.2 μM): 0.162 µM | IC50 (SK-MEL-28 cells; SK-MEL-28, Month 3, vemurafenib 0.4 μM): 0.264 µM | IC50 (SK-MEL-28 cells; SK-MEL-28, Month 4, vemurafenib 0.4 μM): 0.315 µM | IC50 (SK-MEL-28 cells; SK-MEL-28, Month 5, vemurafenib 0.8 μM): 0.61 µM | IC50 (SK-MEL-28 cells; SK-MEL-28, Month 6, vemurafenib 0.8 μM): 0.673 µM | IC50 (SK-MEL-28 cells; SK-MEL-28, Month 7, vemurafenib 1 μM): 0.735 µM | IC50 (SK-MEL-28 cells; SK-MEL-28, Month 8, vemurafenib 1 μM): 0.754 µM | IC50 (SK-MEL-28 cells; SK-MEL-28, Month 9, vemurafenib 4 μM): 0.824 µM | IC50 (SK-MEL-28 cells; SK-MEL-28, Month 10, vemurafenib 8 μM): 1.24 µM | IC50 (SK-MEL-28 cells; SK-MEL-28, Month 11, vemurafenib 8 μM): 1.86 µM | IC50 (SK-MEL-28 cells; SK-MEL-28, Month 12, vemurafenib 10 μM): 3.3 µM | Fold Resistance (SK-MEL-28 cells; Month 0, vemurafenib 0 μM): 1 | Fold Resistance (SK-MEL-28 cells; Month 1, vemurafenib 0.2 μM): 2.1 | Fold Resistance (SK-MEL-28 cells; Month 2, vemurafenib 0.2 μM): 2.24 | Fold Resistance (SK-MEL-28 cells; Month 3, vemurafenib 0.4 μM): 3.52 | Fold Resistance (SK-MEL-28 cells; Month 4, vemurafenib 0.4 μM): 4.2 | Fold Resistance (SK-MEL-28 cells; Month 5, vemurafenib 0.8 μM): 8.13 | Fold Resistance (SK-MEL-28 cells; Month 6, vemurafenib 0.8 μM): 8.97 | Fold Resistance (SK-MEL-28 cells; Month 7, vemurafenib 1 μM): 9.8 | Fold Resistance (SK-MEL-28 cells; Month 8, vemurafenib 1 μM): 10.05 | Fold Resistance (SK-MEL-28 cells; Month 9, vemurafenib 4 μM): 10.99 | Fold Resistance (SK-MEL-28 cells; Month 10, vemurafenib 8 μM): 16.48 | Fold Resistance (SK-MEL-28 cells; Month 11, vemurafenib 8 μM): 24.85 | Fold Resistance (SK-MEL-28 cells; Month 12, vemurafenib 10 μM): 44 | Reduction of cell survival ([1]; 0.2 μM vemurafenib): 18% | Reduction of cell survival ([1]; 0.4 μM vemurafenib): 24% | Decrease of cell survival (A375-R cells; A375-R cells, Mcl-1 silenced by siRNA, then 0.4 μM vemurafenib 72 hours): 65% | IC50 (A375-R cells; A375R cells, 72 hours): 3000 nM
